Laboratory results reported in article PMC9394284, “Discovery of Novel Dual Adenosine A2A and A1 Receptor Antagonists with 1H-Pyrazolo[3,4-d]pyrimidin-6-amine Core Scaffold as Anti-Parkinson’s Disease Agents” (Pharmaceuticals, 2022).
Where two headings read alike, the source gives them in different places.

Assays:
[1] = metabolic stability in cryopreserved monkey hepatocytes
Experimental: Metabolic stability of 11o was determined in cryopreserved hepatocytes from mice, rats, dogs, monkeys and human according to the SOPs of Frontage Laboratories Inc. Briefly, cryopreserved hepatocytes for pre-clinical animals and for human (BioIVT, Westbury, NY, USA) were thawed in a 37 °C water bath with gentle shaking until ice had almost melted. The suspensions were immediately transferred to a centrifuge tube (50 mL) containing pre-warmed thawing media at 37 °C with gentle handshaking to prevent the cells from settling. Cell suspensions were centrifuged at 50× g and 4 °C for 5 min. The supernatant was discarded and the pellets were resuspended in prewarmed incubation media (5 mL) at 37 °C. The percentage of viable cells in the suspension was determined by Trypan blue staining method to ensure viability of ≥70 %. […] The samples were centrifuged and aliquots of the supernatant were analyzed for parent compounds by LC/MS/MS using suitable multiple reaction monitoring (MRM) transitions. […] The disappearance of 11o and midazolam was monitored by LC/MS/MS (MRM) analysis of the hepatocyte extracts at each time point. The peak area ratio of the analyte to internal standard was obtained for each sample and the rate of disappearance of 11o was assessed by comparing the peak area ratios at various time points to the peak area ratio obtained at t = 0. The t1/2 is obtained (using the linear portion of semi-log plot of the area ratio vs. time) and the CLint values determined using well-stirred model.

[2] = pharmacokinetics and bioavailability in mouse plasma; format: in vivo, Crl:CD-1 mice
Experimental: Male Crl:CD-1 mice of 9~10 weeks of age were purchased from Charles River Laboratories, USA and maintained at standard food and water ad libitum in temperature-controlled room with 12 h on-off light cycle before the experiment. All procedures described were reviewed and approved by the Institutional Animal Care and Use Committee (IACUC) at Frontage Laboratories Inc. For PO dosing, mice were given 11o dissolved in DMSO: PEG400 (1:3, v:v) via gavage. For IV dosing, 11o solubilized in DMSO: PEG400: saline (1:3:6, v:v) were injected into tail veins at dose volume of 1 mL/kg. For IN dosing, 11o solubilized in DMSO and 25 μL of the appropriate dosing solution was placed near the nares to allow animal to inhale the dose. Three mice were sampled from each group for each blood and brain collection time point. Time points are 0.5, 1, 2, 4, 8, 24 h for PO and IN dosing and 0.083, 1, 2, 4, 8 and 24 h for IV dosing. Mice were euthanized by terminal retro-orbital blood collection under isoflurane anesthesia, followed by opening of the thoracic cavity per facility SOPs. A target volume of 1 mL was collected into tubes containing K3EDTA anti-coagulant, inverted several times and held on wet ice until centrifuged under refrigeration (set at 5 °C for 10 min at 2000× g). Resulting plasma were stored in a freezer set to maintain −70 °C until analyzed for 11o concentration. Brain was removed from each animal and weighed following termination, snap frozen and stored until later use. Plasma and brain PK analysis was conducted using WinNolin Version 6.2.1 (Pharsight, Mountain View, CA, USA), operating as a validated software system. Noncompartmental analysis was conducted using the extravascular administration model for oral dosing and the IV bolus model for IV dosing. The peak plasma and brain concentration, time to achieve peak plasma concentration, half-life, and area under the plasma concentration-time curve (Cmax, Tmax, T1/2 and AUC) were calculated from mean plasma concentrations for each sampling time/dose group for 11o. Nominal blood collection times were used for calculation of PK parameters. Dose proportionality was assessed, and bioavailability was calculated for PO dosing.

[3] = test system: haloperidol-induced catalepsy; assay: haloperidol-induced catalepsy in female rats (bar test); format: in vivo, Sprague Dawley rats
Experimental: Vehicle or varying amount of 11o (0.3, 1, 3, 10 mg/kg) was administered first, followed by IP injection of 1 mg/kg haloperidol 60 min later.
A total of 120 female Sprague Dawley rats (275~300 g) were purchased from Charles River Laboratories (Charles River, Senneville, QC, Canada) and maintained at Atuka, Inc. All animal studies were conducted at Atuka, Inc. according to CCAC guidelines and under IACUC-approved Animal Use Protocols (AUPs), with IACUC number 6606.0.3 for this study.
The catalepsy study incorporated 12 groups of rats. Ten rats were incorporated into each treatment group (total N = 120 rats). Treatments were divided over 3 consecutive treatment blocks and the order of treatments were randomized within each block and all treatments completed within that block before proceeding to the next. […] Catalepsy was assessed a further 60 min later (t = 120).
Behavior was evaluated in each animal by assessing performance on the bar test. Catalepsy was assessed 60 min following haloperidol administration (120 min following administration of vehicle, 11o or istradefylline). […] The time taken for the animal to remove both paws (decent latency) from the rod and place them back on the surface, in seconds was determined. The test was conducted in triplicate and the average of the three tests were calculated.

[4] = male, Crl:CD-1, inhaled or intranasal, mouse plasma, 10 mg/kg IN
[5] = male, Crl:CD-1, mouse plasma, 1 mg/kg IV
[6] = male, Crl:CD-1, mouse plasma, 1 mg/kg PO
[7] = male, Crl:CD-1, mouse plasma, 3 mg/kg PO
[8] = male, Crl:CD-1, mouse plasma, 10 mg/kg PO

## Cc1cc(Cn2ncc3c(-c4cccc(C#N)c4F)nc(N)nc32)ccc1N [11o, 3-(6-Amino-1-(4-amino-3-methylbenzyl)-1H-pyrazolo[3,4-d]pyrimidin-4-yl)-2-fluorobenzonitrile]
[1]; cynomolgus monkey, cryopreserved hepatocytes in suspension
  CLint scaled at 1 μM: 20.1 mL/min/kg
[1]; monkey hepatocytes, 1 μM 11o
  Intrinsic Clearance: 0.00558 mL/min/10^6 Cells
[1]; monkey, cryopreserved hepatocytes in suspension
  half-life at 1 μM: 2.07 h
[2]; male, Crl:CD-1, inhaled or intranasal, mouse plasma, 1 mg/kg IN
  Tmax: 0.5 h
[2]; male, Crl:CD-1, inhaled or intranasal, mouse plasma, 3 mg/kg IN
  Tmax: 0.5 h
[2]; [4]
  Tmax: 0.5 h
  half-life: 7.4 h
[2]; male, Crl:CD-1, mouse, plasma, inhaled or intranasal, 1 mg/kg, mouse plasma, 1 mg/kg IN
  AUC(0-t): 74.9 ng·h/mL
[2]; male, Crl:CD-1, mouse, plasma, inhaled or intranasal, 1 mg/kg, mouse plasma, 1 mg/kg IN, read-out: Cmax
  Cmax: 23.3 ng/mL
[2]; male, Crl:CD-1, mouse, plasma, inhaled or intranasal, 3 mg/kg, mouse plasma, 3 mg/kg IN
  AUC(0-t): 183 ng·h/mL
[2]; male, Crl:CD-1, mouse, plasma, inhaled or intranasal, 3 mg/kg, mouse plasma, 3 mg/kg IN, read-out: Cmax
  Cmax: 53.9 ng/mL
[2]; male, Crl:CD-1, mouse, plasma, inhaled or intranasal, 10 mg/kg, mouse plasma, 10 mg/kg IN
  AUC(0-t): 444 ng·h/mL
[2]; male, Crl:CD-1, mouse, plasma, inhaled or intranasal, 10 mg/kg, mouse plasma, 10 mg/kg IN, read-out: Cmax
  Cmax: 88.5 ng/mL
[2]; male, Crl:CD-1, mouse, plasma, iv, 1 mg/kg, mouse plasma, 1 mg/kg IV
  AUC(0-t): 332 ng·h/mL
[2]; male, Crl:CD-1, mouse, plasma, iv, 1 mg/kg, mouse plasma, 1 mg/kg IV, read-out: Cmax
  Cmax: 459 ng/mL
[2]; male, Crl:CD-1, mouse, plasma, po, 1 mg/kg, mouse plasma, 1 mg/kg PO
  AUC(0-t): 176 ng·h/mL
[2]; male, Crl:CD-1, mouse, plasma, po, 1 mg/kg, mouse plasma, 1 mg/kg PO, read-out: Cmax
  Cmax: 36.8 ng/mL
[2]; male, Crl:CD-1, mouse, plasma, po, 3 mg/kg, mouse plasma, 3 mg/kg PO
  AUC(0-t): 577 ng·h/mL
[2]; male, Crl:CD-1, mouse, plasma, po, 3 mg/kg, mouse plasma, 3 mg/kg PO, read-out: Cmax
  Cmax: 81.4 ng/mL
[2]; male, Crl:CD-1, mouse, plasma, po, 10 mg/kg, mouse plasma, 10 mg/kg PO
  AUC(0-t): 2250 ng·h/mL
[2]; male, Crl:CD-1, mouse, plasma, po, 10 mg/kg, mouse plasma, 10 mg/kg PO, read-out: Cmax
  Cmax: 367 ng/mL
[2]; male, Crl:CD-1, plasma, other: intranasal (IN), placed near the nares, mouse, IN, 1, 3 and 10 mg/kg, depending on the dose, read-out: Bioavailability after IN administration
  bioavailability: 13.4 to 22.6%
[2]; [5]
  Tmax: 0.083 h
  half-life: 3.95 h
[2]; [6]
  Tmax: 2 h
  half-life: 4.38 h
[2]; [7]
  Tmax: 2 h
  half-life: 3.66 h
[2]; [8]
  Tmax: 2 h
  half-life: 5.69 h
[2]; mouse plasma, 1 mg/kg IN, relative to AUClast of 1 mg/kg IV
  BA: 22.6%
[2]; mouse plasma, 1 mg/kg IV (reference for the calculation)
  BA: 100%
[2]; mouse plasma, 1 mg/kg PO, relative to AUClast of 1 mg/kg IV, 1 mg/kg
  BA: 53%
[2]; mouse plasma, 3 mg/kg IN, relative to AUClast of 1 mg/kg IV
  BA: 18.4%
[2]; mouse plasma, 3 mg/kg PO, 3 mg/kg
  Cmax: 81.3 ng/mL
[2]; mouse plasma, 3 mg/kg PO, relative to AUClast of 1 mg/kg IV
  BA: 57.9%
[2]; mouse plasma, 10 mg/kg IN, relative to AUClast of 1 mg/kg IV
  BA: 13.4%
[2]; mouse plasma, 10 mg/kg PO, 10 mg/kg
  AUClast: 2249 ng·h/mL
[2]; mouse plasma, 10 mg/kg PO, relative to AUClast of 1 mg/kg IV
  BA: 67.7%
[3]; 0.3, 1, 3, 10 mg/kg PO, maximum effect at 10 mg/kg, comparable to istradefylline 1 mg/kg
  reversal of haloperidol-induced catalepsy (latency to step down): dose-dependently reversed haloperidol-induced catalepsy
[3]; Rattus norvegicus, PO 60 min before haloperidol 1 mg/kg, read-out: graded ED50, reversal of haloperidol-induced catalepsy
  ED50: 3 to 10 mg/kg
